According to US20130023589A1, “MEDICATION FOR THERAPY OR PROPHYLAXIS OF ASTHMA” (priority 2011, published 2013):

Key:
[1] = system: primary human bronchial smooth cells (BSMC); assay: WST-1 cell proliferation assay of BSMCs cocultured with DBP-treated BEAS-2B cells; format: cell-based; details: 5 μM ginger compound for 1 hour, then coculture with DBP-BEAS for 72 hours; groups A2-7 to A2-10, FIG. 7
Protocol: (§1) With reference to FIG. 5, the plasticizers-treated bronchial smooth muscle cells are prepared by processing two steps. In the first step, a plasticizer-treated bronchial epithelial cell line is obtained by harvesting a human bronchial epithelial cell line in a chemical plasticizer at 37±1° C. for 6 hours, with each 100 mm incubating plate receiving 2×10^6 cells and with the treatment of the chemical plasticizer to induce the excretion of proinflammatory cytokines in the human bronchial epithelial cell line, such as IL-8 and RANTES, followed by removing the chemical plasticizer from the human bronchial epithelial cell line, reincubating the human bronchial epithelial cell lines in a culturing medium for 24 hours, and finally collecting the supernatants to obtain plasticizers-treated bronchial epithelial cells of the present invention. In specification, the chemical plasticizer of the present invention can be selected from a group of butylbenzyl phthalate (BBP), bis-(2-ethylhexyl) phthalate (BEHP), dibutyl phthalate (DBP) and diethyl phthalate (DEP), and with the concentration of 0.1 to 5.0 μM.
(§2) In the second step, the plasticizer-treated bronchial epithelial cells obtained from the first step are coincubated with a human bronchial smooth muscle cell line to obtain the plasticizer-treated bronchial smooth muscle cells of the present invention. […]
Additionally, with reference to TABLE 2, the BSMCs are placed and preincubated in 96-well culture plates for 24 hours, followed by randomly assigning into 10 groups including A2-1 to A2-10 to carry out various treatments between 10 groups. […] After the various treatments of each group, the proliferation degrees of BSMCs in each group are determined by Premixed WST-1 Cell Proliferation Reagent (Clontech Laboratories Inc., Mountain View, Calif.).

[2] = system: primary human bronchial smooth cells (BSMC); assay: QCM Chemotaxis cell migration assay of BSMCs cocultured with DBP-treated BEAS-2B cells; format: cell-based; details: 5 μM ginger compound, then coculture with DBP-BEAS for 24 hours; groups A1-7 to A1-10, FIG. 6
Protocol: as §1, §2
With reference of TABLE 1, the BSMCs are previously seeded into a migration chamber for 24 hours, with the BSMCs placing on the surface of the migration chamber, and randomly assigned into 10 groups including A1-1 to A1-10 to carry out various treatments between 10 groups. […] After the treatments, the BSMCs of the groups A1-1 to A1-10 are analyzed by a QCM Chemotaxis […] cell migration assay system (Chemicon, Temecula, Calif.; Millipore Corp, Bedford, Mass.), with the BSMCs in each group being stained, lysed and finally quantified on a microplate at 560 nm. […]

Compound | plasticizer-induced airway remodeling: proliferation of BSMCs [1] | plasticizer-induced airway remodeling: migration of BSMCs [2]
CCCCCCCCC[C@H](O)CC(=O)CCc1ccc(O)c(OC)c1 [[10]-gingerol] | sufficient in suppressing | sufficient in suppressing
CCCCC/C=C/C(=O)CCc1ccc(O)c(OC)c1 [[6]-shogaol] | sufficient in suppressing | sufficient in suppressing
CCCCC[C@H](O)CC(=O)CCc1ccc(O)c(OC)c1 [[6]-gingerol] | sufficient in suppressing | sufficient in suppressing
